Our source for the TGI and GI50 values is PubChem BioAssay (NCI).

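Tested at 5 concentrations; 48 h exposure; 96-well plates; endpoints linearly interpolated, else capped at highest concentration. Here, GI50 denotes the concentration required for 50% inhibition of growth. TGI: concentration producing complete growth inhibition.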

Test systems include BT-549 breast; SK-MEL-5 melanoma; MDA-N; MDA-MB-231 breast; NCI/ADR-RES ovarian; EKVX NSCLC; MDA-MB-435; SF-268 CNS; UO-31 renal; K-562 leukemia.
Test in all cases: inhibition of tumour cell growth, NCI panel, 48 h

Turning to `CC(C)CCC[C@@H](C)[C@H]1CCC2C3CC=C4C[C@@H](Oc5c6ccccc6nc6ccccc56)CCC4C3CCC21` (stereo partly drawn), the TGI in the assay with BT-549 breast, in the assay with SK-MEL-5 melanoma, with MDA-N, in the assay on MDA-MB-231 breast, in the assay on NCI/ADR-RES ovarian and in the assay with EKVX NSCLC was more than 50 µM in each case. Also, the TGI in the assay with MDA-MB-435, in the assay with SF-268 CNS, with UO-31 renal and with K-562 leukemia was more than 50 µM in each case.
With `c1ccc(C2=Nc3nc4ccccc4n3C(c3ccccc3)C2)cc1` (stereo not drawn), the TGI in the assay on BT-549 breast, in the assay on SK-MEL-5 melanoma, in the assay on MDA-N, in the assay on MDA-MB-231 breast, with NCI/ADR-RES ovarian and with EKVX NSCLC was more than 100 µM throughout. In addition, the TGI in the assay with MDA-MB-435, in the assay on SF-268 CNS, in the assay with UO-31 renal and with K-562 leukemia was more than 100 µM each time.
`CCOC(=O)c1c(Br)c(-c2ccc(Br)cc2)c(Br)n1C`: the TGI worked out at 79.4 µM in the assay with BT-549 breast; 35.2 µM with SK-MEL-5 melanoma; 32.5 µM with MDA-N; 50.1 µM in the assay with MDA-MB-231 breast; 87.5 µM with NCI/ADR-RES ovarian; 74.2 µM in the assay with EKVX NSCLC. Further, the TGI with MDA-MB-435 was 22.6 µM; in the assay with SF-268 CNS it was 75.9 µM; with UO-31 renal it was more than 100 µM; in the assay with K-562 leukemia, 35.1 µM. The GI50 in the assay with MDA-N was 5.64 µM; with NCI/ADR-RES ovarian, 21.2 µM; in the assay on EKVX NSCLC it was 20.3 µM; in the assay with MDA-MB-435, 4.26 µM; in the assay with K-562 leukemia, 11.3 µM.
For the molecule `CC(C)C(C/C=C1\CC(CO)(COC(=O)c2ccccc2)OC1=O)C(C)C` (stereo not drawn), the TGI in the assay on BT-549 breast is 36.9 µM; with SK-MEL-5 melanoma, 29.7 µM; in the assay on MDA-N it was 57.8 µM; with MDA-MB-231 breast it was 44.2 µM; in the assay on NCI/ADR-RES ovarian, 45 µM; in the assay on EKVX NSCLC, 29.8 µM. Also, the TGI was more than 100 µM in the assay on MDA-MB-435, 35.5 µM in the assay on SF-268 CNS, 32.4 µM in the assay with UO-31 renal and 44.1 µM in the assay with K-562 leukemia.
For `O=C1C(F)=CC(COC(c2ccccc2)(c2ccccc2)c2ccccc2)OC1n1cc(F)c(=O)[nH]c1=O` (stereo not drawn), the TGI in the assay with BT-549 breast was 4.38 µM; with SK-MEL-5 melanoma it was 3.22 µM; with MDA-N, 3.38 µM; in the assay on MDA-MB-231 breast, 18.5 µM; with NCI/ADR-RES ovarian it was 8.31 µM; in the assay with EKVX NSCLC it was more than 24.4 µM. Moreover, the TGI in the assay with MDA-MB-435 is 3.18 µM; in the assay on SF-268 CNS, 12.6 µM; in the assay on UO-31 renal, 5.61 µM; with K-562 leukemia it was more than 100 µM.
Consider `NC(=Nc1ccc(O)cc1)S(=O)(=O)O`, for which the TGI in the assay on BT-549 breast, with SK-MEL-5 melanoma, in the assay on MDA-N, with MDA-MB-231 breast, in the assay with NCI/ADR-RES ovarian and with EKVX NSCLC was more than 100 µM each time. The TGI with MDA-MB-435, with SF-268 CNS, in the assay on UO-31 renal and with K-562 leukemia was more than 100 µM throughout.
Regarding `C=CC1ON(Cc2ccccc2)CCc2cc(OC)c(OC)cc21` (stereo not drawn), the TGI was more than 100 µM in the assay on BT-549 breast; 31.6 µM with SK-MEL-5 melanoma; 89.5 µM in the assay with MDA-N; more than 100 µM with MDA-MB-231 breast; more than 100 µM in the assay with NCI/ADR-RES ovarian; more than 100 µM in the assay with EKVX NSCLC. Moreover, the TGI in the assay on MDA-MB-435 is 84.9 µM; in the assay on SF-268 CNS, more than 100 µM; in the assay on UO-31 renal, more than 100 µM; in the assay on K-562 leukemia, more than 100 µM.
`CN(C)c1nc(NC23CC4CC(CC(C4)C2)C3)nc(N(C)C)n1`: the TGI in the assay with BT-549 breast was more than 100 µM; in the assay on SK-MEL-5 melanoma, 24.8 µM; with MDA-N, more than 45.9 µM; in the assay with MDA-MB-231 breast, more than 57 µM; in the assay on NCI/ADR-RES ovarian, more than 100 µM; in the assay on EKVX NSCLC it was more than 100 µM. Besides, the TGI was more than 100 µM with MDA-MB-435, more than 100 µM with SF-268 CNS, more than 77.2 µM in the assay with UO-31 renal and 7.84 µM in the assay on K-562 leukemia.
Turning to `CC(C)=CC(=O)O[C@H]1C(=O)O[C@@H]2C[C@H]3[C@H](C)C(=O)C(O[C@@H]4O[C@H](CO)[C@@H](O)[C@H](O)[C@H]4O)=C[C@]3(C)[C@H]3[C@@H](O)[C@H](O)[C@]4(C(=O)O)OC[C@]32[C@@H]14`, the GI50 in the assay with BT-549 breast is more than 100 µM; in the assay with SK-MEL-5 melanoma, 42.9 µM; with MDA-MB-231 breast, more than 100 µM; in the assay on NCI/ADR-RES ovarian, more than 100 µM; with EKVX NSCLC, more than 100 µM; in the assay with SF-268 CNS it was more than 100 µM. Moreover, the values for the GI50 in the assay with UO-31 renal and in the assay with K-562 leukemia were 31.3 µM and 25.8 µM, respectively. For the same molecule, the TGI in the assay with BT-549 breast, in the assay with SK-MEL-5 melanoma, with MDA-N, with MDA-MB-231 breast, in the assay on NCI/ADR-RES ovarian and with EKVX NSCLC was more than 100 µM in each case. The TGI in the assay on MDA-MB-435, in the assay with SF-268 CNS, with UO-31 renal and in the assay on K-562 leukemia was more than 100 µM throughout.
On to `NNc1nc2ccccc2c(=O)n1NC(=O)C(=O)Nc1cccc(C(F)(F)F)c1`, for which the TGI with BT-549 breast, in the assay on SK-MEL-5 melanoma, in the assay with MDA-N, in the assay with MDA-MB-231 breast, with NCI/ADR-RES ovarian and in the assay with EKVX NSCLC was more than 100 µM throughout. Further, the TGI with MDA-MB-435, with SF-268 CNS, in the assay with UO-31 renal and in the assay with K-562 leukemia was more than 100 µM each time.
`Cn1c(=O)c2c(nc3n(Cc4ccccc4)c(=O)c(NCCBr)cn23)n(C)c1=O`: the TGI was more than 100 µM with BT-549 breast; more than 100 µM with SK-MEL-5 melanoma; more than 100 µM in the assay with MDA-N; 72.2 µM in the assay on MDA-MB-231 breast; 60.2 µM with NCI/ADR-RES ovarian; 48.1 µM with EKVX NSCLC. Also, the TGI is more than 100 µM in the assay with MDA-MB-435, more than 100 µM in the assay on SF-268 CNS, 36 µM with UO-31 renal and more than 100 µM in the assay on K-562 leukemia.
Regarding `c1ccc(-c2sc(-c3cccs3)cc2Cc2cccs2)cc1`, the TGI in the assay with BT-549 breast, with SK-MEL-5 melanoma, with MDA-N, in the assay on MDA-MB-231 breast, with NCI/ADR-RES ovarian and in the assay on EKVX NSCLC was more than 10 µM each time. The TGI in the assay with MDA-MB-435, in the assay with SF-268 CNS, in the assay with UO-31 renal and in the assay with K-562 leukemia was more than 10 µM throughout.
For the molecule `COc1ccc(O[C@H](COCc2ccccc2)C[C@@H]2COC(C)(C)O2)cc1`, the TGI with BT-549 breast, in the assay with SK-MEL-5 melanoma, in the assay with MDA-N, in the assay with MDA-MB-231 breast, with NCI/ADR-RES ovarian and with EKVX NSCLC was more than 100 µM each time. Also, the TGI with MDA-MB-435, in the assay on SF-268 CNS, in the assay with UO-31 renal and with K-562 leukemia was more than 100 µM each time.
With `CN1C(=S)C(c2ccccc2)Sc2ccccc21` (stereo not drawn), the TGI in the assay with BT-549 breast, with SK-MEL-5 melanoma, in the assay on MDA-N, with MDA-MB-231 breast, in the assay on NCI/ADR-RES ovarian and with EKVX NSCLC was more than 100 µM throughout. Besides, the TGI in the assay with MDA-MB-435, in the assay on SF-268 CNS, with UO-31 renal and with K-562 leukemia was more than 100 µM each time.
Turning to `Cc1ccc(OCC2OC(n3cnc4nc(Cl)nc(Cl)c43)CC2Oc2ccc(C)cc2)cc1` (stereo not drawn), the TGI came out at 30.4 µM with BT-549 breast; 30.8 µM with SK-MEL-5 melanoma; 13.7 µM with MDA-N; 6.56 µM in the assay with MDA-MB-231 breast; 37.8 µM in the assay on NCI/ADR-RES ovarian; 34 µM with EKVX NSCLC. Further, the TGI in the assay with MDA-MB-435 stood at 24.3 µM; in the assay on SF-268 CNS, 23.4 µM; with UO-31 renal, 22 µM; with K-562 leukemia it was 4.83 µM.
`O=C1Sc2ccc(Br)cc2C(=O)Sc2ccccc21`: the TGI came out at 28.2 µM with BT-549 breast; 29.5 µM with SK-MEL-5 melanoma; 22.8 µM in the assay on MDA-N; 31.7 µM with MDA-MB-231 breast; 60 µM in the assay on NCI/ADR-RES ovarian; 22.2 µM in the assay with EKVX NSCLC. Besides, the TGI in the assay with MDA-MB-435 was 21.7 µM; in the assay with SF-268 CNS, 22.3 µM; in the assay with UO-31 renal it was 27.1 µM; in the assay on K-562 leukemia, more than 59.3 µM.
For `CCOC(=O)N1CCN(c2ccc3c(C)cc(C)nc3n2)CC1`, the TGI in the assay on BT-549 breast, with SK-MEL-5 melanoma, in the assay on MDA-N, in the assay with MDA-MB-231 breast, in the assay with NCI/ADR-RES ovarian and with EKVX NSCLC was more than 100 µM each time. The TGI in the assay on MDA-MB-435, in the assay on SF-268 CNS, with UO-31 renal and in the assay on K-562 leukemia was more than 100 µM each time.
In the case of `CCOC(=O)/C(=C\c1ccc(N(C)C)cc1)S(=O)(=O)C(F)(F)C(F)(F)C(F)(F)C(F)(F)F`, the TGI in the assay with BT-549 breast, with SK-MEL-5 melanoma, in the assay on MDA-N, in the assay with MDA-MB-231 breast, with NCI/ADR-RES ovarian and in the assay with EKVX NSCLC was more than 100 µM in each case. For the same molecule, the TGI in the assay with MDA-MB-435, in the assay with SF-268 CNS, with UO-31 renal and with K-562 leukemia was more than 100 µM throughout.
